The record followed here is US10906905B2, “Five-membered heteroaryl ring bridged ring derivative, preparation method therefor and medical use thereof” (Jiangsu Hengrui Medicine Co., Ltd., priority 2016, dated 2021).

The target of one data set is p38α kinase (Homo sapiens (Human), UniProt Q16539). Description: Inhibition of p38α kinase activity (p38α kinase assay kit, ADP-Glo). Format: biochemical. The conditions noted are these: ATP 50 μM; read-out: IC50 of inhibition effect on p38α kinase activity. The procedure: The inhibition of p38α kinase activity in vitro was determined by the following method.
The inhibition effect of the compounds of the present invention on p38a kinase activity was determined by the following experimental method:
p38α kinase assay kit (V9591, Promega) was used to assay enzyme activity. 2 μl of enzyme solution (the final concentration of enzyme in the reaction system was 0.5 ng/μL) formulated with reaction buffer (40 mM Tris pH 7.5, 20 mM MgCl2, 0.1 mg/ml BSA), 1 μl of a 3-fold gradient dilution of the compounds dissolved in 5% DMSO, and 2 μl of a mixed solution of ATP and p38 substrate peptide (the final concentration of ATP was 50 μM, and the final concentration of substrate was 0.2 μg/μL) were added successively to a 384-well plate (4514, Corning). After reaction at 27° C. for 2.5 hours, 5 μl of ADP-Glo solution in the kit was added to each well, then the plate was placed at 27° C. for 40 minutes. 10 μl of kinase assay reagent was then added to each well, then the plate was placed at 27° C. for 30 minutes. The chemiluminescence signal values were measured with a Victor 3 (PerkinElmer) multi-function microplate reader. The IC50 values of the compounds on enzyme inhibition were calculated using Graphpad prism software based on each concentration of the compound and the corresponding signal value thereof.
Background: In ADP-Glo the light output rises with the ADP produced.

The subject of a further data set is NIH3T3 cell. Nature of the data set: Inhibition of NIH3T3 cell proliferation (CellTiter-Glo). In kind it is cell-based. The conditions noted are these: Mus musculus, 72 hours, 0.5% FBS. For orientation: Cellular ATP, detected with luciferase, serves as a proxy for viable cell number.
Data set [1] has as its system Smad signaling pathway of TGFβRI. Description: Inhibition of Smad signaling pathway of TGFβRI (3TP-lux luciferase reporter in HepG2 cell). Format: cell-based. The conditions noted are these: Homo sapiens; HepG2 cell, 3TP-lux plasmid, 18 hours; read-out: IC50 on the inhibition of Smad signaling pathway of TGFβRI. On the technique in general: In a reporter assay the amount or activity of a reporter protein is the signal.

Data set [2] is described as follows: Pharmacokinetics assay in rats after intragastrical administration. Format: in vivo. The conditions noted are these: both sexes, Sprague-Dawley, rat, plasma, po, SD rats, 2 mg/kg; for Vd/F: read-out: Apparent distribution volume Vz/F; for AUC: read-out: Area under curve AUC; for CL/F: read-out: Clearance CLz/F; for half-life: read-out: Half-life T1/2 (converted); for Cmax: read-out: Plasma concentration Cmax; for MRT: read-out: Residence time MRT. The procedure:
Rats were used as test animals. The drug concentration in plasma at different time points was determined by LC/MS/MS method after intragastrical administration of the compounds of Examples 1-1, 1-2, 2-1, 3-1, the compound with retention time of 6.631 minutes among Examples 9-1 and 9-2, and the compounds of Examples 33 and 39-1 to rats. The pharmacokinetic behavior of the compounds of the present invention was studied and evaluated in rats.
Compounds of Examples 1-1, 1-2, 2-1, 3-1, compound with retention time of 6.631 minutes among Examples 9-1 and 9-2, and compounds of Examples 33 and 39-1.
Twenty-eight healthy adult Sprague-Dawley (SD) rats (half male and half female) were purchased from SINO-BRITISH SIPPR/BK LAB. ANIMAL LTD., CO, with Certificate No.: SCXK (Shanghai) 2008-0016, and equally divided into 7 groups (4 rats per group).
A certain amount of the test compound was weighed, and added with 5% by volume of DMSO, 5% by volume of Tween 80, and 90% by volume of physiological saline were added to prepare a 0.2 mg/mL colorless, clear and transparent solution.
After an overnight fast, SD rats were administered intragastrically the test compounds at an administration dosage of 2.0 mg/kg and an administration volume of 10.0 mL/kg.
The rats were intragastrically administered the compounds of Examples 1-1, 1-2, 2-1, 3-1, the compound with retention time of 6.631 minutes among Examples 9-1 and 9-2, and the compounds of Examples 33 and 39-1.0.2 mL of blood was taken from the orbital sinus before administration and at 0.5, 1.0, 2.0, 4.0, 6.0, 8.0, 11.0 and 24.0 hours after administration. The samples were stored in heparinized tubes, and centrifuged for 10 minutes at 4° C. at 3,500 rpm to separate the blood plasma. The plasma samples were stored at −20° C. The rats were fed 2 hours after administration.
The content of the test compounds in the plasma of rats after intragastrical administration of the test compounds at different concentrations was determined: 25 μL of rat plasma at each time after administration was taken, added with 50 μL (100 ng/mL) of the internal standard solution of camptothecin and 175 μL of acetonitrile, shaken vertically for 5 minutes, and centrifuged for 10 minutes (4000 rpm). 3.0 μL of the supernatant was taken from the plasma samples for LC/MS/MS analysis.

Sequence of p38α kinase (Q16539 whole entry): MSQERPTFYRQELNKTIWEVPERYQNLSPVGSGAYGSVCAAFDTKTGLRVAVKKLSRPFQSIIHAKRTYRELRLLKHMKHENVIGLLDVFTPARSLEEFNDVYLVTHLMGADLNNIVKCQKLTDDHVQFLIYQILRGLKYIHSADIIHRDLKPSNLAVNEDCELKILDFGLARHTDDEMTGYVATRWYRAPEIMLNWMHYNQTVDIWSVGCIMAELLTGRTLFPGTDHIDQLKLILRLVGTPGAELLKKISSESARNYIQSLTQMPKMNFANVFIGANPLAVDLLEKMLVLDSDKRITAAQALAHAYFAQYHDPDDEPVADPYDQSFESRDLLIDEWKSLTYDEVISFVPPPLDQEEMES

With `Cc1cccc(-c2nc3n(c2-c2ccnc(-c4ccc(S(C)(=O)=O)cc4)c2)[C@H]2CC[C@@H]3C2)n1` [Example 3-1, (5S,8R)-2-(6-Methylpyridin-2-yl)-3-(2-(4-(methylsulfonyl)phenyl)pyridin-4-yl)-5,6,7,8-tetrahydro-5,8-methanoimidazo[1,2-a]pyridine], on p38α kinase, the IC50 is 686 nM. The half-inhibitory concentration (IC50) with NIH3T3 cell was determined as 28 nM. For the same molecule, in data set [1], the IC50 was found to be 19 nM. Besides, in data set [2], the Vd/F was found to be 3.3 ± 1.1 L/kg, the AUC was found to be 800 ± 208 ng·h/mL, the CL/F was found to be 43.4 ± 10.4 mL/min/kg and the half-life was 0.868 ± 0.1 h. In data set [2], the Cmax amounted to 502 ± 128 ng/mL and the MRT came to 1.43 ± 0.06 h.
For the molecule `Cc1cccc(-c2nc3n(c2-c2ccc4nnc(C(N)=O)n4c2)[C@H]2CC[C@@H]3C2)n1` [Example 2-1, 6-((5S,8R)-2-(6-Methylpyridin-2-yl)-5,6,7,8-tetrahydro-5,8-methanoimidazo[1,2-a]pyridin-3-yl)[1,2,4]triazolo[4,3-a]pyridine-3-carboxamide], the IC50 on p38α kinase is 1710 nM. Moreover, the IC50 with NIH3T3 cell came out at 44 nM. For the same molecule, in data set [1], the IC50 came out at 21 nM. Moreover, in data set [2], the Vd/F came out at 7.8 ± 1.33 L/kg, the AUC turned out to be 664 ± 93 ng·h/mL, the CL/F amounted to 50.8 ± 7.2 mL/min/kg and the half-life is 1.77 ± 0.2 h. Also, in data set [2], the Cmax was found to be 351 ± 52 ng/mL and the MRT was determined as 2.3 ± 0.37 h.
Regarding `Cc1cccc(-c2nc3n(c2-c2ccc4nccc(C(N)=O)c4c2)[C@H]2CC[C@@H]3C2)n1` [Example 1-1, 6-((5S,8R)-2-(6-Methylpyridin-2-yl)-5,6,7,8-tetrahydro-5,8-methanoimidazo[1,2-a]pyridin-3-yl)quinoline-4-carboxamide], at p38α kinase, the IC50 came out at 618 nM. In the data set with NIH3T3 cell, this molecule came in with an IC50 of 89 nM. Moreover, in data set [1], the 50% inhibitory concentration (IC50) was 36 nM. In addition, in data set [2], the Vd/F is 23.5 ± 19.4 L/kg, the AUC stood at 637 ± 355 ng·h/mL, the CL/F was 68.6 ± 39.2 mL/min/kg and the half-life is 3.42 ± 1.29 h. For the same molecule, in data set [2], the Cmax came to 208 ± 61 ng/mL and the MRT is 3.88 ± 0.26 h.
For `NC(=O)c1ccnc2ccc(-c3c(-c4ccc(F)cn4)nc4n3[C@H]3CC[C@@H]4C3)cc12` [Example 39-1, 6-((5S,8R)-2-(5-Fluoropyridin-2-yl)-5,6,7,8-tetrahydro-5,8-methanoimidazo[1,2-a]pyridin-3-yl)quinoline-4-carboxamide], the 50% inhibitory concentration (IC50) at p38α kinase worked out at 4730 nM. Further, half-maximal inhibition with NIH3T3 cell (IC50) required 88 nM. Also, the IC50 in data set [1] was found to be 24 nM. In addition, in data set [2], the Vd/F is 18.3 ± 17.4 L/kg, the exposure (AUC) was found to be 689 ± 609 ng·h/mL, the CL/F stood at 121 ± 116 mL/min/kg and the half-life was 2.06 ± 0.86 h. Also, in data set [2], the Cmax turned out to be 317 ± 269 ng/mL and the MRT stood at 2.44 ± 1.16 h.

For orientation: IC50 means the concentration needed to halve the response being measured. Broadly, the AUC is concentration integrated over time. Usually MRT stands for a mean duration of stay, worked out from the concentration-time curve.
